# In ChEMBL document CHEMBL1201862, “PubChem BioAssay data set” (2004):
# Activity calls are given as the source filed them.
# Legend:
# [1] = test system: Vero; assay: Vero cell viability after compound exposure – synthesized analogs, set II, cytotoxicity control for West Nile virus antiviral project, SAR follow-up (AID 2402); assay type: functional; conditions: Chlorocebus sabaeus
# [2] = A Cell Based Secondary Assay To Explore Cytotoxicity of Compounds that Sensitize Mycobacterium Tuberculosis to Beta-Lactam Antibiotics.; assay type: functional
# [3] = test system: Vero; assay: inhibition of WNV-induced cytopathic effect – cell-based, CPE readout (AID 1621); assay type: functional; conditions: Chlorocebus sabaeus
# [4] = test system: Vero; assay: cells; assay type: functional, cell-based; conditions: Chlorocebus sabaeus
# [5] = molecular target: Protein Tat (Human immunodeficiency virus type 1 group M subtype B (isolate HXB2)(HIV-1), UniProt P04608); assay type: functional;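 note: tat binding to TAR RNA read out by fluorescence polarization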
# [6] = viability of PTEN-deleted HCT116 cells – cell-based, HCT116 PTEN knockout, dose response (AID 1047); assay type: functional;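 note: HCT116 colon tumor cells with PTEN knocked out; cells exposed to compound for 60 hours before readout; potency for loss of cell viability measured by luminescence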
# [7] = molecular target: T1, Calpain-2 catalytic subunit (Sus scrofa, UniProt P43367); assay: m-calpain protease blockers, concentration series – biochemical, fluorogenic peptide substrate, dose response (AID 1420); assay type: functional
# T1 sequence (P43367 whole entry): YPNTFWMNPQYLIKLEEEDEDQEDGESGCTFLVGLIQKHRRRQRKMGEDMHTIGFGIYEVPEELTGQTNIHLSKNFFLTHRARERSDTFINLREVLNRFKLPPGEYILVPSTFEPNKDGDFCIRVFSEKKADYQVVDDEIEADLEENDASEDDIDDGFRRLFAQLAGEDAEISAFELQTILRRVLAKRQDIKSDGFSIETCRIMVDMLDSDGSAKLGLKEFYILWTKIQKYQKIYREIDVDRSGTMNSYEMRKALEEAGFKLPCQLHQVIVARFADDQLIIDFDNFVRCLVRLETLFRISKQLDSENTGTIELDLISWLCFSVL
# [8] = viability of HCT116 lacking mutant beta-catenin – cell-based, human colon tumor, dose response (AID 1045); assay type: functional;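 note: HCT116 colon tumor cells with beta catenin knocked out; cells exposed to compound for 60 hours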
# [9] = molecular target: T2, Mannose-6-phosphate isomerase (Homo sapiens, UniProt P34949); assay: MPI inhibition at elevated mannose 6-phosphate – biochemical, fluorescence intensity, high mannose 6-phosphate, primary screen (AID 1220)
# T2 sequence (P34949 whole entry): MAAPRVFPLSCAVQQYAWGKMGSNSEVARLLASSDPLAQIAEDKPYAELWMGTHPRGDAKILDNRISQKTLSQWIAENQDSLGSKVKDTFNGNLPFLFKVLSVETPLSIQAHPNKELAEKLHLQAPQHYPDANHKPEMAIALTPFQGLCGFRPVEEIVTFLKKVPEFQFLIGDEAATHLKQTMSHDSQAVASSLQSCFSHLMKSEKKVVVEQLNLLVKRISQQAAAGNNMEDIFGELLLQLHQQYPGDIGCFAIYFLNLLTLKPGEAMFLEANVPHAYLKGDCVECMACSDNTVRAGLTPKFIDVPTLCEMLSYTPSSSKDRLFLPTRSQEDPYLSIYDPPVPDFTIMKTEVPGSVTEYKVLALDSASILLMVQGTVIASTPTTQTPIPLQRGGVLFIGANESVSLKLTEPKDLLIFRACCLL
# [10] = molecular target: T3, Hexokinase HKDC1 (Homo sapiens, UniProt Q2TB90); assay: inhibition of HKDC1 glucose phosphorylation – biochemical, W721R variant, dose response (AID 504729); assay type: functional
# T3 sequence (Q2TB90 whole entry): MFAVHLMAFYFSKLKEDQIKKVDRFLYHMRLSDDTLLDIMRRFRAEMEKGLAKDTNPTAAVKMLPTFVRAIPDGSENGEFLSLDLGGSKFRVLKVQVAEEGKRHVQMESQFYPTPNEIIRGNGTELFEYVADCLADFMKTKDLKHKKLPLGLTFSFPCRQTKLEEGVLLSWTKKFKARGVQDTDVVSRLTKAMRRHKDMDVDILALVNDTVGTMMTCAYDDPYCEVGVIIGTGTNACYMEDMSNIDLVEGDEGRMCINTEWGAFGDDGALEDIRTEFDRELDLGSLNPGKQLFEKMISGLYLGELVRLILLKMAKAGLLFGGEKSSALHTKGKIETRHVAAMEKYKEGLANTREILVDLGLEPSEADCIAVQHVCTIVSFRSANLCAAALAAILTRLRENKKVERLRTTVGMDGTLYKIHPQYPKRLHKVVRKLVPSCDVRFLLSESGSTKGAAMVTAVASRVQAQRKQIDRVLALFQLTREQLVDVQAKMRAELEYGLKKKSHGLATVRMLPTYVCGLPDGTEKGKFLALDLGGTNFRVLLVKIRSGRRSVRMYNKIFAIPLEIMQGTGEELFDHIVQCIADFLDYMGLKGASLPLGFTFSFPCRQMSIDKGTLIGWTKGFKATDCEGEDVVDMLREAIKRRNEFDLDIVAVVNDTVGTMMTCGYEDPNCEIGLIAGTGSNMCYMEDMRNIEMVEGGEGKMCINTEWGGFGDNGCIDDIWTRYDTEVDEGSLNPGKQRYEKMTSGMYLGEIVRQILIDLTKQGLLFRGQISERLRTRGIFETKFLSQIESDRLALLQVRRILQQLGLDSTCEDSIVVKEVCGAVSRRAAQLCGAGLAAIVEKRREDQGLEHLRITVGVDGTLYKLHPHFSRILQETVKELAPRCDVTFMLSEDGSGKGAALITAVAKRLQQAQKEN
# [11] = test system: HEK293; assay: EBV LMP1 TES2 canonical NF-kB signalling blockers – cell-based, HEK293, luciferase, cherry-pick, dose response (AID 588343); assay type: functional; conditions: Homo sapiens
# [12] = molecular target: DNA (cytosine-5)-methyltransferase 1 (Homo sapiens, UniProt P26358); assay: inhibition of DNA methylation by DNMT1 – biochemical, fluorescent molecular beacon, confirmation (AID 602386); assay type: functional
# [13] = molecular target: Hepatocyte nuclear factor 4-alpha (Homo sapiens, UniProt P41235); assay type: functional, cell-based;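 note: biochemical luminescence-based dose-response counterscreen measuring inhibition of HNF4 dimerization, run alongside a screen for blockers of ABHD5–perilipin-5 interaction; split luciferase complementation of HNF4 fusion proteins in cell lysate measuring dimerization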
# [14] = IC50 of Artemis nuclease activity blockers – biochemical, fluorescence intensity, dose response (AID 720701); assay type: functional;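 note: Artemis endonuclease enzyme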
# [15] = luciferase reporter signal suppression in cells – H4 neuroglioma cells, luminescence, dose response (AID 1990); assay type: functional, cell-based
# [16] = luciferase reporter signal reduction – luminescence, H4-C neuroglioblastoma cells, dose response (AID 2458); assay type: functional, cell-based;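 note: H4 neuroglioblastoma cells stably carrying a luciferase reporter gene fusion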
# [17] = molecular target: T4, RNA-binding protein pos-1 (Caenorhabditis elegans, UniProt G5EF15); assay: disruptors of C. elegans POS-1 RNA interaction – biochemical, fluorescence polarization, dose response (AID 1964);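 note: purified POS-1 fused to maltose binding protein made in E. coli; potency of compounds blocking POS-1 binding to fluorescent RNA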
# T4 sequence (G5EF15 whole entry): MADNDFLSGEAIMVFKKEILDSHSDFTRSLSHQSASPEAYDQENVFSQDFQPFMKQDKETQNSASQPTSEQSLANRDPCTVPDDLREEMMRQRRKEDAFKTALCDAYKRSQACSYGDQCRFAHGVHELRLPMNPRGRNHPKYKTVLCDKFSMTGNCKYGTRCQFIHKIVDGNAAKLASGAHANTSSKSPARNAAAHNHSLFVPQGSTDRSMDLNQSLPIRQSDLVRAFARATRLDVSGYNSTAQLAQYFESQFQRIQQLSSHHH
# [18] = Luminescence Cell-Based Dose Response HTS to Identify Inhibitors of 5'UTR Stem-Loop Driven Prion Protein mRNA Translation in H4 Neuroglioblastoma Cells. [Related pubchem assays: 1827 (Project Summary), 1813 (Primary HTS)]; assay type: functional
# [19] = molecular target: T5, Zinc finger protein mex-5 (Caenorhabditis elegans, UniProt Q9XUB2); assay: potency of MEX-5 RNA-binding blockers – biochemical, C. elegans, fluorescence polarization, dose response (AID 1960)
# T5 sequence (Q9XUB2 whole entry): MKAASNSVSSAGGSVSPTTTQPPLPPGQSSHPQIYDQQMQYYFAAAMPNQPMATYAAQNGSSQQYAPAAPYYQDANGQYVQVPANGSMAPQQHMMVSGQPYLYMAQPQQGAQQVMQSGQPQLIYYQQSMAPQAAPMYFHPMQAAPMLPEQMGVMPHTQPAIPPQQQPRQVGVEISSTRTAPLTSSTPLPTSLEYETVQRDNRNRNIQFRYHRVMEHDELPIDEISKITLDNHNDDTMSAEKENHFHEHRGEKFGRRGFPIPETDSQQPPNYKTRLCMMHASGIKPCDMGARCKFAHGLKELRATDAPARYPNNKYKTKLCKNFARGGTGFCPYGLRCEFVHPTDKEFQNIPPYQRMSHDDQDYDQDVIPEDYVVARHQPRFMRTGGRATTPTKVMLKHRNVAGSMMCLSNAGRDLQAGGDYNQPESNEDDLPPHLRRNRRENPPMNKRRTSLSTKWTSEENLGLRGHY
# [20] = alpha-synuclein stem-loop luciferase translation blockers – H4 neuroglioma cells, luminescence, confirmation (AID 1988); assay type: functional, cell-based
# [21] = alpha-synuclein stem-loop translation blockers – luminescence, H4 neuroglioblastoma cells, dose confirmation, confirmation (AID 2454); assay type: functional, cell-based;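 note: H4 neuroglioblastoma cells carrying an alpha-synuclein 5'UTR luciferase reporter; potency for inhibition of the luciferase signal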
# [22] = molecular target: Glucose-6-phosphate 1-dehydrogenase (Homo sapiens, UniProt P11413); assay: inhibition of Homo sapiens G6PD, dose series – biochemical, fluorescence, selectivity assay for P. falciparum G6PD inhibitor project, dose response (AID 504792); assay type: functional
# [23] = CellTiter-Glo luminescence survival assay, SW480 colon tumor line, concentration-response curve, half-maximal inhibitory concentration (AID 1117338); assay type: functional
# [24] = RKO cell viability reduction, dose response, CellTiter-Glo luminescence (AID 1117322); assay type: functional
# [25] = cytotoxicity toward HCT116 cells – cell-based, CellTiter-Glo luminescence, IC50, dose response (AID 1117332); assay type: functional; conditions: HCT-116
# [26] = SNU-C1 cell viability reduction, dose response, CellTiter-Glo luminescence (AID 1117323); assay type: functional, cell-based
# [27] = cytotoxicity toward Colo320 cells – cell-based, CellTiter-Glo luminescence, IC50, dose response (AID 1117334); assay type: functional; conditions: COLO 320
# [28] = cytotoxicity toward HT-29 cells – cell-based, CellTiter-Glo luminescence, IC50, dose response (AID 1117330); assay type: functional
# [29] = Reduced DLD-1 viability, concentration-response, CellTiter-Glo luminescence (AID 1117352); assay type: functional
# [30] = HCT116 cell viability decrease, GSK3B pretreatment – CellTiter-Glo, IC50, dose response (AID 1117339); assay type: functional; conditions: HCT-116
# Sequence of Glucose-6-phosphate 1-dehydrogenase (P11413 whole entry): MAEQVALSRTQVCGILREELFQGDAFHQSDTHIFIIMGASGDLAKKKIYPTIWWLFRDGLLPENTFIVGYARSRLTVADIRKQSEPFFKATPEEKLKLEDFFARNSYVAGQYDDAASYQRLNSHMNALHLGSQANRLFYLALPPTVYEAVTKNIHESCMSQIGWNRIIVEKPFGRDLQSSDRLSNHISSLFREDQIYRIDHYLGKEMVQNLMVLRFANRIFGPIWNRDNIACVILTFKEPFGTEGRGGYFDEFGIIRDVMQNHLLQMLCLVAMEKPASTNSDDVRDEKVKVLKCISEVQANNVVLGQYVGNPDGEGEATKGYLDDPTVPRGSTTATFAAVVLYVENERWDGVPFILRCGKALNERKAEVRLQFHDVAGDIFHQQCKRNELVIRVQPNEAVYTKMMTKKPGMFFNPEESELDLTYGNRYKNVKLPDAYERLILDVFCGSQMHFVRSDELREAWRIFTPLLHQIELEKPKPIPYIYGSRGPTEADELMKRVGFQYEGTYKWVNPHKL
# Sequence of Protein Tat (P04608 whole entry): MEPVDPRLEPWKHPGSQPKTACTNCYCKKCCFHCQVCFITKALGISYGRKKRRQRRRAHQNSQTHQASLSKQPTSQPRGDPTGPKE
# Sequence of Hepatocyte nuclear factor 4-alpha (P41235 whole entry, the tested form may be a part): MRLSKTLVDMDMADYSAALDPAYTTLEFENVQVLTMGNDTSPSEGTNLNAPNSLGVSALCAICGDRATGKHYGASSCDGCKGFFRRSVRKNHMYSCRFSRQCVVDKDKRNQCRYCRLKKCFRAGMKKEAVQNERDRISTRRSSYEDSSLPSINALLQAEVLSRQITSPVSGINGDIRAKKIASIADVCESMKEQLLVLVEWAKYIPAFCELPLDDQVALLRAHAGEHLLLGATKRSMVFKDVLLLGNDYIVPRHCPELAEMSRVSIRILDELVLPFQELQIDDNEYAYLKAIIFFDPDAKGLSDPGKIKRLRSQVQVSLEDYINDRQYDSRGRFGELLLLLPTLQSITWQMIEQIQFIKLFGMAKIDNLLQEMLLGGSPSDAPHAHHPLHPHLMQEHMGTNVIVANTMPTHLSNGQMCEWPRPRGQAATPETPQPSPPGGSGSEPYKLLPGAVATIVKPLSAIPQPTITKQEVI
# Sequence of DNA (cytosine-5)-methyltransferase 1 (P26358 whole entry, the tested form may be a part): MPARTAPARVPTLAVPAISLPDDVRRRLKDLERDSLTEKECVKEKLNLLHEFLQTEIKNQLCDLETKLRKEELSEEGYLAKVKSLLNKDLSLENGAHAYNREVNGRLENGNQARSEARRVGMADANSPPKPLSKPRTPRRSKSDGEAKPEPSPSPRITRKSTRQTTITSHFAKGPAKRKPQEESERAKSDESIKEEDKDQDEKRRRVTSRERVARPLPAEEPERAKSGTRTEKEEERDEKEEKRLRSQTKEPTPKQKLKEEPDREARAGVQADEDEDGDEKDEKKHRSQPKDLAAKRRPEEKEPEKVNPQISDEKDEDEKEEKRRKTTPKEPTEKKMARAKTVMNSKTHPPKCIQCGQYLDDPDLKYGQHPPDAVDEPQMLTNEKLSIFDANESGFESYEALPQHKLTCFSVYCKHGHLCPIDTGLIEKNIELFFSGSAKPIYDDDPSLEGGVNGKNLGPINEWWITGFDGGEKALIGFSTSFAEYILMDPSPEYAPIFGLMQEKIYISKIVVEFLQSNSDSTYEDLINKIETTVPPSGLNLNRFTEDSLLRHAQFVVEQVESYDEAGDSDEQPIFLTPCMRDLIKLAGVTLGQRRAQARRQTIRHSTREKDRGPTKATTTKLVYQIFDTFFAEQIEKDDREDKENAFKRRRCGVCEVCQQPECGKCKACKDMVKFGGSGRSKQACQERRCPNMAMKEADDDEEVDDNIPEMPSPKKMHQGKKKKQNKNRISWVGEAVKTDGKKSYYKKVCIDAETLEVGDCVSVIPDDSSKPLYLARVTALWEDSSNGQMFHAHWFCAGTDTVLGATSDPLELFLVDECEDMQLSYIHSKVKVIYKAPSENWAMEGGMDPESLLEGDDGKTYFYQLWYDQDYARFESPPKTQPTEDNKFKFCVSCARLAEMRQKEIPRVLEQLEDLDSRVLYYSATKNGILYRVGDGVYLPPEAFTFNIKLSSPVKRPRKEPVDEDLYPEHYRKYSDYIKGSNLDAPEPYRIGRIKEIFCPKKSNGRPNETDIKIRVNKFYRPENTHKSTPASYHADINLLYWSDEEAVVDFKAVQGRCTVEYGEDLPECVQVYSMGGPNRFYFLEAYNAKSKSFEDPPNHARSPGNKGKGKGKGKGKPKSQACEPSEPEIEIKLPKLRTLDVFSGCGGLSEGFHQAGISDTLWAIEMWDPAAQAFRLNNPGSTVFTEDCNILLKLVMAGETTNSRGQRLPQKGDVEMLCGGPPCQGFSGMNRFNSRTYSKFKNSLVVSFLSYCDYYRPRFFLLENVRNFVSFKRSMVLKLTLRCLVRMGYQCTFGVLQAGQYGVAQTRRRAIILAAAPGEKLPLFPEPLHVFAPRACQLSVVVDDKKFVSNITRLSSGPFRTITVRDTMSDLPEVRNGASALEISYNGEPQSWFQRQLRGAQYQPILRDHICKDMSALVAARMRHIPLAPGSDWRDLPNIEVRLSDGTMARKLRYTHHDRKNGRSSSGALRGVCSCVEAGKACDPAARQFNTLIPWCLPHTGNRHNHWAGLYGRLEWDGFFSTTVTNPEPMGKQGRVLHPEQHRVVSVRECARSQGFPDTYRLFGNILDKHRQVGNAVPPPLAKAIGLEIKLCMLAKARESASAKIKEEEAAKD
structure (smiles),measurement,setting,value
OC1c2c(F)cccc2N=C2CCCN21 (stereo not given),CC50,[1],> 200000 nM (active)
NC1=C(c2nc(-c3ccc(Cl)cc3)cs2)C(=O)CN1CCCN1CCOCC1,CC50,[2],> 40000 nM (active)
same,IC50,[3],24200 nM (active)
same,IC50,[4],22000 nM (active)
COc1ccc(C2CC(=O)Oc3cc(OC)ccc32)cc1 (stereo not given),IC50,[5],> 100000 nM (active)
Cc1oc2c(c1C(=O)c1ccc(Cl)cc1)C(=O)C(=O)c1ccccc1-2,EC50,[6],2630 nM (active)
same,IC50,[7],< 400 nM (not active)
same,EC50,[8],2360 nM (active)
same,IC50,[9],> 50000 nM (not active)
same,IC50,[10],8830 nM (active)
same,AC50,[11],11700 nM (active)
same,IC50,[12],6050 nM (active)
same,IC50,[13],3580 nM (active)
same,IC50,[14],1120 nM (active)
Cc1ccc2nc3sc(C(=O)N4CCOCC4)c(N)c3cc2c1,EC50,[15],2010 nM (active)
same,EC50,[16],> 12000 nM (inconclusive)
same,EC50,[17],46800 nM (active)
same,EC50,[18],< 100 nM (active)
same,EC50,[19],> 300000 nM (inconclusive)
same,EC50,[20],2370 nM (active)
same,EC50,[21],927 nM (active)
same,IC50,[22],> 80000 nM (inactive)
O=C(Nc1ccc(Br)cc1)c1cc(Br)c(Br)s1 [TIBROFAN],IC50,[23],123 nM (active)
same,IC50,[24],431 nM (active)
same,IC50,[25],541 nM (active)
same,IC50,[26],1100 nM (active)
same,IC50,[27],18 nM (active)
same,IC50,[28],520 nM (active)
same,IC50,[29],335 nM (active)
same,IC50,[30],342 nM (active)
